# Assay results as given in ChEMBL document CHEMBL1681651, “A broad spectrum anticancer nucleoside with selective toxicity against human colon cells in vitro” (2011).
# Legend:
# Type in all cases: functional
# TK-10 [1] = assay: Growth inhibition of human TK10 cells assessed as cell growth at 1 uM after 48 hrs by SRB assay; conditions: TK-10, 48 h, read-out: Activity
# CCRF-CEM [2] = assay: Growth inhibition of human CCRF-CEM cells assessed as cell growth at 10 uM after 48 hrs by SRB assay; conditions: read-out: Activity
# [3] = Growth inhibition of human […] cells assessed as cell growth at 10 uM after 48 hrs by SRB assay; conditions: read-out: Activity
# A549 [4] = assay: Growth inhibition of human A549 cells assessed as cell growth at 10 uM after 48 hrs by SRB assay; conditions: A549, 48 h, read-out: Activity
# NCI-H23 [5] = assay: Growth inhibition of human NCI-H23 cells assessed as cell growth at 10 uM after 48 hrs by SRB assay; conditions: NCI-H23, 48 h, read-out: Activity
# HT-29 [6] = assay: Growth inhibition of human HT-29 cells assessed as cell growth at 10 uM after 48 hrs by SRB assay; conditions: HT-29, 48 h, read-out: Activity
# NCI-H23 [7] = assay: Growth inhibition of human NCI-H23 cells after 48 hrs by […] growth inhibition assay; conditions: NCI-H23, 48 h
# NCI-H460 [8] = assay: Growth inhibition of human NCI-H460 cells after 48 hrs by […] growth inhibition assay; conditions: NCI-H460, 48 h
# COLO 205 = assay: Growth inhibition of human COLO205 cells after 48 hrs by […] growth inhibition assay; conditions: COLO 205, 48 h
# UACC-62 [9] = assay: Growth inhibition of human UACC62 cells after 48 hrs by […] growth inhibition assay; conditions: UACC-62, 48 h
# U-251 = assay: Growth inhibition of human U251 cells after 48 hrs by […] growth inhibition assay; conditions: U-251, 48 h
# 786-0 [10] = assay: Growth inhibition of human 786-0 cells after 48 hrs by […] growth inhibition assay; conditions: 786-0, 48 h
# UO-31 [11] = assay: Growth inhibition of human UO31 cells after 48 hrs by […] growth inhibition assay; conditions: UO-31, 48 h
# CCRF-CEM [12] = assay: Growth inhibition of human CCRF-CEM cells assessed as cell growth at 0.1 uM after 48 hrs by SRB assay; conditions: read-out: Activity
# NCI-H23 [13] = assay: Growth inhibition of human NCI-H23 cells assessed as cell growth at 0.1 uM after 48 hrs by SRB assay; conditions: NCI-H23, 48 h, read-out: Activity
# NCI-H522 = assay: Growth inhibition of human NCI-H522 cells assessed as cell growth at 0.1 uM after 48 hrs by SRB assay; conditions: NCI-H522, 48 h, read-out: Activity
# A498 [14] = assay: Growth inhibition of human A498 cells assessed as cell growth at 0.1 uM after 48 hrs by SRB assay; conditions: A498, 48 h, read-out: Activity
# UACC-62 [15] = assay: Growth inhibition of human UACC62 cells assessed as cell growth at 10 uM after 48 hrs by SRB assay; conditions: UACC-62, 48 h, read-out: Activity
# OVCAR-5 = assay: Growth inhibition of human OVCAR5 cells assessed as cell growth at 10 uM after 48 hrs by SRB assay; conditions: OVCAR-5, 48 h, read-out: Activity
# A498 [16] = assay: Growth inhibition of human A498 cells assessed as cell growth at 10 uM after 48 hrs by SRB assay; conditions: A498, 48 h, read-out: Activity
# TK-10 [17] = assay: Growth inhibition of human TK10 cells assessed as cell growth at 10 uM after 48 hrs by SRB assay; conditions: TK-10, 48 h, read-out: Activity
# BT-549 [18] = assay: Growth inhibition of human BT549 cells assessed as cell growth at 10 uM after 48 hrs by SRB assay; conditions: BT-549, 48 h, read-out: Activity
# A549 [19] = assay: Growth inhibition of human A549 cells assessed as cell growth at 100 uM after 48 hrs by SRB assay; conditions: A549, 48 h, read-out: Activity
# KM12 = assay: Growth inhibition of human KM12 cells assessed as cell growth at 100 uM after 48 hrs by SRB assay; conditions: KM12, 48 h, read-out: Activity
# 786-0 [20] = assay: Growth inhibition of human 786-0 cells assessed as cell growth at 100 uM after 48 hrs by SRB assay; conditions: 786-0, 48 h, read-out: Activity
# UO-31 [21] = assay: Growth inhibition of human UO31 cells assessed as cell growth at 100 uM after 48 hrs by SRB assay; conditions: UO-31, 48 h, read-out: Activity
# BT-549 [22] = assay: Growth inhibition of human BT549 cells assessed as cell growth at 100 uM after 48 hrs by SRB assay; conditions: BT-549, 48 h, read-out: Activity
# HT-29 [23] = assay: Growth inhibition of human HT-29 cells assessed as cell growth at 1 mM after 48 hrs by SRB assay; conditions: HT-29, 48 h, read-out: Activity
# SN12C = assay: Growth inhibition of human SN12C cells assessed as cell growth at 1 mM after 48 hrs by SRB assay; conditions: read-out: Activity
# NCI/ADR-RES = assay: Growth inhibition of human NCI/ADR-RES cells after 48 hrs by SRB assay
# NCI-H460 [24] = assay: Growth inhibition of human NCI-H460 cells assessed as cell growth at 1 uM after 48 hrs by SRB assay; conditions: NCI-H460, 48 h, read-out: Activity
# SK-MEL-5 = assay: Growth inhibition of human SK-MEL-5 cells assessed as cell growth at 1 uM after 48 hrs by SRB assay; conditions: SK-MEL-5, 48 h, read-out: Activity
# [25] = read-out: LC50 (the source's name)
# [26] = read-out: pLC50 (the source's name) (converted)
smiles,measurement,setting,value
CNC(=O)NC[C@H]1O[C@@H](n2cnc3c(NC(=O)Nc4ccccc4)ncnc32)[C@H](O[Si](C)(C)C(C)(C)C)[C@@H]1O[Si](C)(C)C(C)(C)C,growth at 1 µM,TK-10 [1],113%
same,growth at 10 µM,CCRF-CEM [2],101%
same,growth at 10 µM,[3],98%
same,growth at 10 µM,A549 [4],90%
same,growth at 10 µM,NCI-H23 [5],105%
same,growth at 10 µM,HT-29 [6],107%
same,GI50,NCI-H23 [7]; read-out: GI50,3.17 µM
same,CC50,NCI-H23 [7]; [25],86 µM
same,TGI,NCI-H23 [7]; read-out: TGI,9.07 µM
same,GI50,NCI-H23 [7]; read-out: pGI50 (converted),3.16 µM
same,CC50,NCI-H23 [7]; [26],85.1 µM
same,TGI,NCI-H23 [7]; read-out: pTGI (converted),9.12 µM
same,GI50,NCI-H460 [8]; read-out: GI50,1.72 µM
same,CC50,NCI-H460 [8]; [25],7.11 µM
same,TGI,NCI-H460 [8]; read-out: TGI,3.49 µM
same,GI50,NCI-H460 [8]; read-out: pGI50 (converted),1.7 µM
same,CC50,NCI-H460 [8]; [26],7.08 µM
same,TGI,NCI-H460 [8]; read-out: pTGI (converted),3.47 µM
same,GI50,COLO 205; read-out: GI50,1.89 µM
same,CC50,COLO 205; [25],5.98 µM
same,TGI,COLO 205; read-out: TGI,3.36 µM
same,GI50,COLO 205; read-out: pGI50 (converted),1.91 µM
same,CC50,COLO 205; [26],6.03 µM
same,TGI,COLO 205; read-out: pTGI (converted),3.39 µM
same,GI50,UACC-62 [9]; read-out: GI50,3.98 µM
same,CC50,UACC-62 [9]; [25],> 100 µM
same,TGI,UACC-62 [9]; read-out: TGI,23.6 µM
same,GI50,UACC-62 [9]; read-out: pGI50 (converted),3.98 µM
same,CC50,UACC-62 [9]; [26],> 100 µM
same,TGI,UACC-62 [9]; read-out: pTGI (converted),23.4 µM
same,GI50,U-251; read-out: GI50,2.96 µM
same,CC50,U-251; [25],> 100 µM
same,TGI,U-251; read-out: TGI,10.8 µM
same,GI50,U-251; read-out: pGI50 (converted),2.95 µM
same,CC50,U-251; [26],> 100 µM
same,TGI,U-251; read-out: pTGI (converted),10.7 µM
same,GI50,786-0 [10]; read-out: GI50,2.04 µM
same,CC50,786-0 [10]; [25],6.75 µM
same,TGI,786-0 [10]; read-out: TGI,3.71 µM
same,GI50,786-0 [10]; read-out: pGI50 (converted),2.04 µM
same,CC50,786-0 [10]; [26],6.76 µM
same,TGI,786-0 [10]; read-out: pTGI (converted),3.72 µM
same,GI50,UO-31 [11]; read-out: GI50,2.5 µM
same,CC50,UO-31 [11]; [25],> 100 µM
same,TGI,UO-31 [11]; read-out: TGI,9.56 µM
same,GI50,UO-31 [11]; read-out: pGI50 (converted),2.51 µM
same,CC50,UO-31 [11]; [26],> 100 µM
same,TGI,UO-31 [11]; read-out: pTGI (converted),9.55 µM
same,growth at 0.1 µM,CCRF-CEM [12],104%
same,growth at 0.1 µM,NCI-H23 [13],100%
same,growth at 0.1 µM,NCI-H522,92%
same,growth at 0.1 µM,A498 [14],92%
same,growth at 10 µM,UACC-62 [15],90%
same,growth at 10 µM,OVCAR-5,103%
same,growth at 10 µM,A498 [16],90%
same,growth at 10 µM,TK-10 [17],112%
same,growth at 10 µM,BT-549 [18],103%
same,growth at 100 µM,A549 [19],4%
same,growth at 100 µM,KM12,-66%
same,growth at 100 µM,786-0 [20],-83%
same,growth at 100 µM,UO-31 [21],-2%
same,growth at 100 µM,BT-549 [22],-10%
same,growth at 1000 µM,HT-29 [23],-100%
same,growth at 1000 µM,SN12C,-90%
same,GI50,NCI/ADR-RES; read-out: GI50,3.72 µM
same,CC50,NCI/ADR-RES; [25],> 100 µM
same,TGI,NCI/ADR-RES; read-out: TGI,20.7 µM
same,GI50,NCI/ADR-RES; read-out: pGI50 (converted),3.72 µM
same,CC50,NCI/ADR-RES; [26],> 100 µM
same,TGI,NCI/ADR-RES; read-out: pTGI (converted),20.9 µM
same,growth at 1 µM,NCI-H460 [24],93%
same,growth at 1 µM,SK-MEL-5,98%
CNC(=O)OC[C@H]1O[C@@H](n2cnc3c(NC(=O)Nc4ccccc4)ncnc32)[C@H](O[Si](C)(C)C(C)(C)C)[C@@H]1O[Si](C)(C)C(C)(C)C,growth at 10 µM,[3],88.1%
same,growth at 10 µM,A549 [4],80.8%
same,growth at 10 µM,NCI-H23 [5],98%
same,growth at 10 µM,HT-29 [6],81.3%
same,growth at 10 µM,UACC-62 [15],106%
same,growth at 10 µM,OVCAR-5,120%
same,growth at 10 µM,A498 [16],98.4%
same,growth at 10 µM,TK-10 [17],96%
